Common to all, as to type: functional, cell-based
Assay [1] relates to A549. Kind of assay: Antiproliferative activity against human A549 cells after 3 days by SRB assay. Conditions: A549, 72 h. For orientation: In SRB staining, fixed cells bind dye roughly in proportion to their protein.
For assay [2], the system named is KB. Kind of assay: Antiproliferative activity against human KB cells after 3 days by SRB assay. Conditions: 72 h.
A short description of assay [3]: Antiproliferative activity against human KBVIN cells after 3 days by SRB assay. Conditions: 72 h.
The subject of assay [4] is MDA-MB-231. Put plainly: Antiproliferative activity against human MDA-MB-231 cells after 3 days by SRB assay. As to conditions: MDA-MB-231, 72 h.
In assay [5] the test system is MCF7. Kind of assay: Antiproliferative activity against human MCF7 cells after 3 days by SRB assay. Conditions: MCF7, 72 h.

The structures appear in SMILES notation.

We go through 17 compounds from ChEMBL document CHEMBL3763014, “Alkaloids from Oxytropis ochrocephala and antiproliferative activity of sophoridine derivatives against cancer cell lines” (Bioorg Med Chem Lett, 2016).

As a reminder, the IC50 is the concentration that inhibits the measured activity by half. High values mean a need for much substance, low ones inhibition by little substance. For the compound `O[C@@H]1[C@H]2[C@H](O)CCCN2C[C@@H]1O`, the IC50 in assay [1], in assay [2], in assay [3] and in assay [4] was more than 40 µM in each case.
For the compound `O=C1CCC[C@@H]2[C@@H]3C[C@@H](CN12)[C@@H]1CCCCN1C3`, the IC50 in assay [1], in assay [2], in assay [3] and in assay [4] was more than 40 µM in each case.
As for `CCOc1cc(/C=C2\CC[C@@H]3[C@H]4CCCN5CCC[C@H](CN3C2=O)[C@@H]45)ccc1OCOC`, the half-maximal inhibitory concentration (IC50) in assay [1], in assay [2], in assay [3] and in assay [4] was more than 40 µM each time.
Take `COc1ccc(/C=C2\CC[C@@H]3[C@H]4CCCN5CCC[C@H](CN3C2=O)[C@@H]45)c(C)c1`: the IC50 in assay [1] is 74 µM; in assay [2], 74 µM; in assay [3], more than 80 µM; in assay [4], 67 µM; in assay [5], more than 80 µM.
With `CCOc1cc(/C=C2\CC[C@@H]3[C@H]4CCCN5CCC[C@H](CN3C2=O)[C@@H]45)ccc1OCc1ccccc1`, the IC50 turned out to be 17.6 µM in assay [1]; 20.7 µM in assay [2]; 21.6 µM in assay [3]; 21.9 µM in assay [4]; 20.5 µM in assay [5].
Consider `O=C1CCC[C@@H]2[C@H]3CCCN4CCC[C@H](CN12)[C@H]34`, for which the IC50 in assay [1], in assay [2], in assay [3] and in assay [4] was more than 40 µM each time.
In the case of `COc1cccc(OC)c1/C=C1\CC[C@@H]2[C@H]3CCCN4CCC[C@H](CN2C1=O)[C@@H]34`, the IC50 in assay [1], in assay [2], in assay [3] and in assay [4] was more than 40 µM each time.
As to `CN(C)c1ccc(/C=C2\CC[C@@H]3[C@H]4CCCN5CCC[C@H](CN3C2=O)[C@@H]45)cc1`, the IC50 in assay [1], in assay [2], in assay [3] and in assay [4] was more than 40 µM each time.
In the case of `O=C1CCCC2=C3CCCN4CCC[C@@H](CN12)[C@@H]34`, the IC50 in assay [1], in assay [2], in assay [3] and in assay [4] was more than 40 µM each time.
For the compound `COc1cc(/C=C2\CC[C@@H]3[C@H]4CCCN5CCC[C@H](CN3C2=O)[C@@H]45)ccc1C`, the IC50 is 42 µM in assay [1]; 58 µM in assay [2]; 72 µM in assay [3]; 45 µM in assay [4]; 54 µM in assay [5].
Regarding `O=C1CCC[C@@H]2[C@H]3CCCN4CCC[C@@H](CN12)[C@@H]34` [MATRINE], the IC50 in assay [1], in assay [2], in assay [3] and in assay [4] was more than 40 µM in each case.
In the case of `O=c1cccc2n1C[C@@H]1CCCN3CCC[C@H]2[C@H]13`, the IC50 in assay [1], in assay [2], in assay [3] and in assay [4] was more than 40 µM throughout.
As for `CC(=O)O[C@H]1C(=O)[C@@]2(C)[C@H]([C@H](OC(=O)c3ccccc3)[C@]3(O)C[C@H](OC(=O)[C@H](O)[C@@H](NC(=O)c4ccccc4)c4ccccc4)C(C)=C1C3(C)C)[C@]1(OC(C)=O)CO[C@@H]1C[C@@H]2O` [PACLITAXEL], the IC50 in assay [1] was determined as 3e-05 µM; in assay [2], 4e-05 µM; in assay [3], 2.6 µM; in assay [4] it was 0.018 µM.
With `O=C1C=CC[C@@H]2[C@H]3CCCN4CCC[C@@H](CN12)[C@@H]34` [SOPHOCARPINE], the IC50 in assay [1], in assay [2], in assay [3] and in assay [4] was more than 40 µM in each case.
Take `COc1cccc(/C=C2\CC[C@@H]3[C@H]4CCCN5CCC[C@H](CN3C2=O)[C@@H]45)c1OC`: the 50% inhibitory concentration (IC50) in assay [1] is more than 80 µM; in assay [2], 71 µM; in assay [3] it was more than 80 µM; in assay [4], 68 µM; in assay [5] it was more than 80 µM.
Consider `O=C1/C(=C/c2ccc3c(c2)OCO3)CC[C@@H]2[C@H]3CCCN4CCC[C@H](CN12)[C@@H]34`, for which the IC50 in assay [1], in assay [2], in assay [3] and in assay [4] was more than 40 µM throughout.
`O=C1CCC[C@@H]2[C@H]3CCCN4CCC[C@H](CN12)[C@@H]34` [SOPHORIDINE]: the IC50 in assay [1], in assay [2], in assay [3], in assay [4] and in assay [5] was more than 80 µM each time.
